Assay results from ChEMBL document CHEMBL2034936, “Discovery and extensive in vitro evaluations of NK-HDAC-1: a chiral histone deacetylase inhibitor as a promising lead” (J Med Chem, 2012).

What was measured:
[1] = system: HL-60(TB); assay: cells; assay type: functional; details: Homo sapiens, HL-60, 72 h
Description: Growth inhibition of human HL-60(TB) cells after 72 hrs by MTS assay

[2] = system: U-251; assay: cells; assay type: functional; details: Homo sapiens, U-251, 72 h
Description: Growth inhibition of human U251 cells after 72 hrs by MTS assay

[3] = system: TK-10; assay: cells; assay type: functional; details: Homo sapiens, TK-10, 72 h
Description: Growth inhibition of human TK10 cells after 72 hrs by MTS assay

[4] = system: NCI-H522; assay: cells; assay type: functional; details: Homo sapiens, NCI-H522, 72 h
Description: Growth inhibition of human NCI-H522 cells after 72 hrs by MTS assay

[5] = cells; assay type: functional; details: Homo sapiens, Hs-578T, 72 h
Description: Growth inhibition of human Hs 578T cells after 72 hrs by MTS assay

[6] = Lipophilicity, log D of the compound in pH 7.4 PBS buffer; assay type: physicochemical
[7] = system: SW-620; assay: cells; assay type: functional; details: Homo sapiens, SW-620, 72 h
Description: Growth inhibition of human SW620 cells after 72 hrs by MTS assay

[8] = system: BT-549; assay: cells; assay type: functional; details: Homo sapiens, BT-549, 72 h
Description: Growth inhibition of human BT549 cells after 72 hrs by MTS assay

[9] = system: HCT-116; assay: Growth inhibition of human HCT116 cells after 72 hrs by MTS assay; assay type: functional; details: HCT-116, 72 h
[10] = system: ACHN; assay: cells; assay type: functional; details: Homo sapiens, 72 h
Description: Growth inhibition of human ACHN cells after 72 hrs by MTS assay

[11] = target: Cytochrome P450 3A4 (Homo sapiens, UniProt P08684); assay: Inhibition of human CYP3A4; assay type: ADME
[12] = system: SN12C; assay: cells; assay type: functional; details: Homo sapiens, 72 h
Description: Growth inhibition of human SN12C cells after 72 hrs by MTS assay

[13] = system: LOX IMVI; assay: cells; assay type: functional; details: Homo sapiens, 72 h
Description: Growth inhibition of human LOXIMVI cells after 72 hrs by MTS assay

[14] = system: K562; assay: cells; assay type: functional; details: Homo sapiens, K562, 72 h
Description: Growth inhibition of human K562 cells after 72 hrs by MTS assay

[15] = system: RXF 393; assay: cells; assay type: functional; details: Homo sapiens, RXF 393, 72 h
Description: Growth inhibition of human RXF393 cells after 72 hrs by MTS assay

[16] = system: MDA-MB-435; assay: cells; assay type: functional; details: Homo sapiens, MDA-MB-435, 72 h
Description: Growth inhibition of human MDA-MB-435 cells after 72 hrs by MTS assay

[17] = system: 786-0; assay: cells; assay type: functional; details: Homo sapiens, 786-0, 72 h
Description: Growth inhibition of human 786-0 cells after 72 hrs by MTS assay

[18] = system: NCI-H322M; assay: Growth inhibition of human NCI-H322M cells after 72 hrs by MTS assay; assay type: functional
[19] = system: A498; assay: cells; assay type: functional; details: Homo sapiens, A498, 72 h
Description: Growth inhibition of human A498 cells after 72 hrs by MTS assay

[20] = Half life in artificial intestinal fluid; assay type: physicochemical
[21] = system: MDA-MB-231; assay: cells; assay type: functional; details: Homo sapiens, MDA-MB-231, 72 h
Description: Growth inhibition of human MDA-MB-231 cells after 72 hrs by MTS assay

[22] = system: PC-3; assay: cells; assay type: functional; details: Homo sapiens, PC-3, 72 h
Description: Growth inhibition of human PC3 cells after 72 hrs by MTS assay

[23] = system: SF-268; assay: cells; assay type: functional; details: Homo sapiens, SF-268, 72 h
Description: Growth inhibition of human SF268 cells after 72 hrs by MTS assay

[24] = system: HCT-15; assay: cells; assay type: functional; details: Homo sapiens, HCT-15, 72 h
Description: Growth inhibition of human HCT15 cells after 72 hrs by MTS assay

[25] = system: NCI-H460; assay: Growth inhibition of human NCI-H460 cells after 72 hrs by MTS assay; assay type: functional; details: NCI-H460, 72 h
[26] = system: T47D; assay: cells; assay type: functional; details: Homo sapiens, 72 h
Description: Growth inhibition of human T47D cells after 72 hrs by MTS assay

Chain of Cytochrome P450 3A4 (P08684 whole entry): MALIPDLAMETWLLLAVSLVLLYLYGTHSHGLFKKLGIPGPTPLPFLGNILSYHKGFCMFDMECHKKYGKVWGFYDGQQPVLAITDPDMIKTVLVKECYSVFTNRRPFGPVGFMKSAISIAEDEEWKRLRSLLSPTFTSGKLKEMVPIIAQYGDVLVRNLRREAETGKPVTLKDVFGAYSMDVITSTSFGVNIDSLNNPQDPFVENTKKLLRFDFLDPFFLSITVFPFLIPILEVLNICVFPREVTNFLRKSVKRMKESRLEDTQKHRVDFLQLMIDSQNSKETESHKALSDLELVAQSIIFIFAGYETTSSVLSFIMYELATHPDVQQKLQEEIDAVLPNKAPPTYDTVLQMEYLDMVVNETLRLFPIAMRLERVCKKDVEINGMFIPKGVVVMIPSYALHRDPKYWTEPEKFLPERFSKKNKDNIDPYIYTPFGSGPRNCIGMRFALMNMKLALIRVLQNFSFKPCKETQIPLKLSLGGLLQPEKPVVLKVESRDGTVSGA

**Q.** With `CC(C)[C@@H](c1nc2ccccc2o1)n1cc(/C=C/C(=O)NO)nn1` as the compound, how does the GI50 [1] read?
**A.** 190 nM

**Q.** What about the GI50 [2] of the same compound?
**A.** 180 nM

**Q.** What about the GI50 [3] of the same compound?
**A.** 44 nM

**Q.** And the GI50 [4]?
**A.** 13 nM

**Q.** What about the GI50 [5] of the same compound?
**A.** 580 nM

**Q.** And the logD [6]?
**A.** 2

**Q.** What about the GI50 [7] of the same compound?
**A.** 130 nM

**Q.** What about the GI50 [8] of the same compound?
**A.** 52 nM

**Q.** And the GI50 [9]?
**A.** 38 nM

**Q.** And the GI50 [10]?
**A.** 210 nM

**Q.** What about the INH [11] of the same compound?
**A.** 31.9 µM

**Q.** What about the GI50 [12] of the same compound?
**A.** 360 nM

**Q.** What about the GI50 [13] of the same compound?
**A.** 44 nM

**Q.** What about the GI50 [14] of the same compound?
**A.** 88 nM

**Q.** And the GI50 [15]?
**A.** 180 nM

**Q.** And the GI50 [16]?
**A.** 91 nM

**Q.** What about the GI50 [17] of the same compound?
**A.** 170 nM

**Q.** What about the GI50 [18] of the same compound?
**A.** 140 nM

**Q.** What about the GI50 [19] of the same compound?
**A.** 180 nM

**Q.** And the half-life [20]?
**A.** > 24 h

**Q.** And the GI50 [21]?
**A.** 520 nM

**Q.** What about the GI50 [22] of the same compound?
**A.** 120 nM

**Q.** What about the GI50 [23] of the same compound?
**A.** 330 nM

**Q.** What about the GI50 [24] of the same compound?
**A.** 470 nM

**Q.** And the GI50 [25]?
**A.** 150 nM

**Q.** What about the GI50 [26] of the same compound?
**A.** 51 nM
